Measured values taken from patent US7109174B2, “Anticonvulsant derivatives useful for preventing the development of type II diabetes mellitus and syndrome X” (Ortho-McNeil Pharmaceutical, Inc., priority 2000, dated 2006).

How the values were obtained:
[1] = tested on: animal model of kindled epilepsy; conditions: cited from earlier work
ob/ob mice = ob/ob mice first study: topiramate in food for 120 days; plasma glucose, insulin, triglycerides, body weight; format: in vivo; conditions: for Blood concentration Glucose / Blood concentration Insulin / Blood concentration Triglycerides: mean ± SEM, N 10
From the text: It is known that ob/ob mice when allowed to eat ad libitum, develop abnormally high blood levels of insulin (hyperinsulinemia), glucose (hyperglycemia), lesions of the skin, and a high level of glycosylated hemoglobin, all of which are hallmark signs of Type II diabetes mellitus (R. R. HENRY, Ann. Intern. Med. 1996, 124, 97–103; G. W. EDELSON, Clin. Podiatr. Med. Surg. 1998, 15, 41–48; P. R. JOHNSON, M. R. GREENWOOD, B. A. HORWITZ and J. S. STERN, Annu. Rev. Nutr. 1991, 11, 325–353). Based on this knowledge of the ob/ob mouse model, two studies were designed to determine the effect of compounds of formula (I) in these mice models.
In the first study, a uniform population of mice was divided into three groups; in one group of control mice no topiramate was added to the food for the entire 120-day study period. In a second group topiramate was added to the food in amounts sufficient to give a daily dose of 20 mg/kg for 84 days, then a daily dose of 180 mg/kg for 36 days. A third group received a daily dose of 60 mg/kg for the entire 120 days. After completion of the 120-day period, the mice were sacrificed and blood was obtained and prepared for subsequent analyses of glucose, insulin and triglycerides in plasma.

[2] = tested on: db/db mice (Homozygous Diabetic Mice); assay: Plasma glucose, triglycerides and body weight in female diabetic db/db mice, 11 days oral dosage; format: in vivo; conditions: for Plasma Glucose % Change / Plasma Triglycerides % Change / Change in Body Weight / Plasma Triglycerides Plasma Conc. / Plasma Glucose Plasma Conc.: 11 days; for Plasma Glucose % Change / Plasma Triglycerides % Change: versus vehicle; for Change in Body Weight / Plasma Triglycerides Plasma Conc. / Plasma Glucose Plasma Conc.: ± SEM
Protocol: Six to seven week old female C57 BLK SIJ-m^+/^+ Lepr^db mice (db/db) and heterozygous littermates were purchased from The Jackson Laboratory (Bar Harbor, Me.). Upon arrival the mice were quarantined for 5 days and housed in pairs in shoe-box cages containing ALPHA-dri® bedding (Shepherd Speciality Papers, Inc., Kalamazoo, Mich.). The mice were maintained at an ambient temperature of 21 to 23° C. on a 12 hour-12 hour light-dark schedule and given access to water and food ad libitum. The diet was comprised of NIH (National Institutes of Health) Rat and Mouse/Auto 6F Reduced Fat Diet No. 5K52 (PMI Nutrition International Inc., Brentwood, Mo.).
The vehicle, used as a reference and for test compounds, was 0.5% methylcellulose dissolved in water. The compounds were either fully dissolved or uniformly suspended in the vehicle when administered to the mice.
The db/db mice were randomly separated into five groups of eight, as were the heterozygous littermates. The groups were as follows: one vehicle control group and four groups that each received one of four doses of topiramate (TPM) (10, 30, 100, or 300 mg/kg, respectively). Topiramate or vehicle was administered orally by gavage once a day during the 8th hour of the light portion of the light-dark cycle.
Between 18 and 24 hours after the last dose was administered, the mice were anesthetized with CO2/O2 (70:30) and blood from the retro-orbital sinus puncture was collected into 2 mL heparinized snap-top polypropylene tubes, then placed in ice.
Plasma was separated from blood cells by centrifugation (15 minutes at 1600 g). For samples not assayed immediately, the plasma was transferred into 96-well plates and frozen at −70° C.
Glucose and triglycerides were assayed using standard procedures for blood clinical laboratories. Specifically, the samples were analyzed using an automated Hitachi 717 autoanalyzer (Boehringer Mannheim/Hitachi 717 Autoanalyzer, Boehringer Mannheim Laboratory Systems Division, Indianapolis, Ind.). A statistical analysis of data for the drug-treated groups compared to data for the vehicle group was performed using the one-way analysis of variance (ANOVA) with Dunnett's Multiple Comparisons test.
Following the procedure described above, the effect of topiramate on plasma glucose and triglyceride levels was determined for female diabetic db/db mice and littermates, following 11 days oral dosage, with results as listed in Table 3 and 4. Body weights are in Table 5. The abbreviation N represents the number of animals per study group.

Female ZDF rats = assay: Blood glucose and oral glucose tolerance in female ZDF rats dosed orally for 16 days; format: in vivo; conditions: for Plasma Glucose Levels: 16 days, ± SEM
Protocol: Female ZDF rats were also randomly divided into control and topiramate (30 or 100 mg/kg/day) treated groups, dosed orally for 16 days, and tested for blood glucose levels and oral glucose tolerance following glucose challenge of 2 g/kg. The effect of topiramate was as listed in Table 10 (N=8 rats per treatment group).

[3] = TPM 1: 20 mg/kg/day 84 days then 180 mg/kg/day 36 days in food
[4] = TPM 2: 60 mg/kg/day 120 days in food
[5] = 100 mg/kg oral once a day, P < 0.01
[6] = 300 mg/kg oral once a day, P < 0.01

SMILES: CC1(C)O[C@@H]2[C@@H](CO[C@@]3(COS(N)(=O)=O)OC(C)(C)O[C@@H]23)O1 [Topiramate, 2,3:4,5-bis-O-(1-methylethylidene)-β-D-fructopyranose sulfamate]
- seizure block [1]: effectively block seizures
- Glucose percentage difference versus control (ob/ob mice; [3]): −39%
- Insulin percentage difference versus control (ob/ob mice; [3]): −37%
- Triglycerides percentage difference versus control (ob/ob mice; [3]): −46%
- Blood concentration Glucose (ob/ob mice; [3]): 183 ± 33 mg/dL
- Blood concentration Insulin (ob/ob mice; [3]): 6.4 ± 0.7 ng/mL
- Blood concentration Triglycerides (ob/ob mice; [3]): 103 ± 5 mg/dL
- Glucose percentage difference versus control (ob/ob mice; [4]): −41%
- Insulin percentage difference versus control (ob/ob mice; [4]): −21%
- Triglycerides percentage difference versus control (ob/ob mice; [4]): −41%
- Blood concentration Glucose (ob/ob mice; [4]): 179 ± 11 mg/dL
- Blood concentration Insulin (ob/ob mice; [4]): 8.0 ± 0.9 ng/mL
- Blood concentration Triglycerides (ob/ob mice; [4]): 113 ± 8 mg/dL
- body weight (ob/ob mice; TPM 2 group (60 mg/kg/day), day 119): 62.2 ± 1.2 g
- body weight (ob/ob mice; TPM 2 group (60 mg/kg/day), day −1 (beginning of administration)): 48.4 ± 0.9 g
- Body weight gain compared with control (ob/ob mice; TPM 2 group (60 mg/kg/day), day −1 to day 119): Body weight gain for the control and TPM 2 groups from day −1 to day 119 was also similar.
- Plasma Glucose % Change ([2]; 10 mg/kg oral once a day): −27.4%
- Plasma Triglycerides % Change ([2]; 10 mg/kg oral once a day): −18.9%
- Change in Body Weight ([2]; 10 mg/kg oral once a day): 1.7 ± 0.9 g
- Plasma Triglycerides Plasma Conc. ([2]; 10 mg/kg oral once a day): 277 ± 30 mg/dL
- Plasma Glucose Plasma Conc. ([2]; 10 mg/kg oral once a day, P < 0.05): 382 ± 46 mg/dL
- decrease in blood glucose vs. control ([2]; 10 mg/kg/day, P<0.05): 27%
- Plasma Glucose % Change ([2]; 30 mg/kg oral once a day): −34.6%
- Plasma Triglycerides % Change ([2]; 30 mg/kg oral once a day): −11.2%
- Change in Body Weight ([2]; 30 mg/kg oral once a day): 2.6 ± 1.0 g
- Plasma Triglycerides Plasma Conc. ([2]; 30 mg/kg oral once a day): 303 ± 29 mg/dL
- Plasma Glucose Plasma Conc. ([2]; 30 mg/kg oral once a day, P < 0.01): 344 ± 31 mg/dL
- decrease in blood glucose vs. control ([2]; 30 mg/kg/day, P<0.01): 35%
- Plasma Glucose % Change ([2]; 100 mg/kg oral once a day): −36.6%
- Plasma Triglycerides % Change ([2]; 100 mg/kg oral once a day): −33.7%
- Change in Body Weight ([2]; 100 mg/kg oral once a day): 1.5 ± 0.7 g
- Plasma Glucose Plasma Conc. [2, 5]: 333 ± 42 mg/dL
- Plasma Triglycerides Plasma Conc. [2, 5]: 227 ± 15 mg/dL
- decrease in blood glucose vs. control ([2]; 100 mg/kg/day, P<0.01): 37%
- Plasma Glucose % Change ([2]; 300 mg/kg oral once a day): −60.5%
- Plasma Triglycerides % Change ([2]; 300 mg/kg oral once a day): −41.7%
- Change in Body Weight ([2]; 300 mg/kg oral once a day): 0.7 ± 2.4 g
- Plasma Glucose Plasma Conc. [2, 6]: 207 ± 41 mg/dL
- Plasma Triglycerides Plasma Conc. [2, 6]: 199 ± 16 mg/dL
- decrease in blood glucose vs. control ([2]; 300 mg/kg/day, P<0.01): 61%
- decrease in plasma triglyceride levels versus diabetic controls ([2]; 100 and 300 mg/kd/day, P<0.01): up to 42%
- Plasma Glucose Levels (Female ZDF rats; 30 mg/kg/day oral, 60 Min after Challenge (glucose 2 g/kg), P < 0.05): 342 ± 32 md/dL
- Plasma Glucose Levels (Female ZDF rats; 30 mg/kg/day oral, 90 Min after Challenge, P < 0.01): 269 ± 32 md/dL
- Plasma Glucose Levels (Female ZDF rats; 30 mg/kg/day oral, 120 Min after Challenge, P < 0.01): 206 ± 26 md/dL
- Plasma Glucose Levels (Female ZDF rats; 30 mg/kg/day oral, Time = 0): 121 ± 13 md/dL
- Plasma Glucose Levels (Female ZDF rats; 100 mg/kg/day oral, 60 Min after Challenge (glucose 2 g/kg), P < 0.01): 333 ± 32 md/dL
- Plasma Glucose Levels (Female ZDF rats; 100 mg/kg/day oral, 90 Min after Challenge, P < 0.01): 242 ± 28 md/dL
- Plasma Glucose Levels (Female ZDF rats; 100 mg/kg/day oral, 120 Min after Challenge, P < 0.01): 173 ± 23 md/dL
- Plasma Glucose Levels (Female ZDF rats; 100 mg/kg/day oral, Time = 0): 129 ± 15 md/dL
- oral glucose tolerance (Female ZDF rats; at 60, 90 and 120 minutes after glucose challenge): improves
